What was measured:
[1] = Binding affinity at rat imidazoline receptor I-2
[2] = biological target: T1, Adrenergic receptor alpha-2 (Rattus norvegicus, UniProt P22086+P19328+P22909); assay: Binding affinity at alpha-2 adrenergic receptors of rat.; format: protein assay
T1 sequence (P22086 whole entry): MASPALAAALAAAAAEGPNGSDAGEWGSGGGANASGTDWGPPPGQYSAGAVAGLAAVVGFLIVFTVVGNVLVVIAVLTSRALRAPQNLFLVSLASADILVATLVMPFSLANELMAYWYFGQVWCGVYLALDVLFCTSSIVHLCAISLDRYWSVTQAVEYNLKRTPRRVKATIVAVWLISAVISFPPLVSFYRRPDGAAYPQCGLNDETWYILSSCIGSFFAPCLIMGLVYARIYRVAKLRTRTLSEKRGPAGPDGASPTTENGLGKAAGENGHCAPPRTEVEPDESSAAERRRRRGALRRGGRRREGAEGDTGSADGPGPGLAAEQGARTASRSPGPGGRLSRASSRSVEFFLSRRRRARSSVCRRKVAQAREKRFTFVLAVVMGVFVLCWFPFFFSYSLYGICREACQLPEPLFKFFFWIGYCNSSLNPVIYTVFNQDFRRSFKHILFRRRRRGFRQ
T1 sequence (P19328 whole entry): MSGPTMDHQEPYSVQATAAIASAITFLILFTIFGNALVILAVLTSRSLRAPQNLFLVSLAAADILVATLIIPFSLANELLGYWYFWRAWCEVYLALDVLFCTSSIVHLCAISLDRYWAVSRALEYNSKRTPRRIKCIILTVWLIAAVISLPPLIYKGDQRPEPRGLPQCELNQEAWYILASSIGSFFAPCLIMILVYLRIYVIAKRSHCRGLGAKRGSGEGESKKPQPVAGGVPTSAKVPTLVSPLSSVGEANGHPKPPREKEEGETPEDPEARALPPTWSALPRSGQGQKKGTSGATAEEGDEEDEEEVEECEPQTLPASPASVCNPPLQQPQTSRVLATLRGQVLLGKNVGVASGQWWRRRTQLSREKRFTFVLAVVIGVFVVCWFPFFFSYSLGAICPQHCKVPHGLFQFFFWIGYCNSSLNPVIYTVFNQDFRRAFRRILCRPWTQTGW
T1 sequence (P22909 whole entry): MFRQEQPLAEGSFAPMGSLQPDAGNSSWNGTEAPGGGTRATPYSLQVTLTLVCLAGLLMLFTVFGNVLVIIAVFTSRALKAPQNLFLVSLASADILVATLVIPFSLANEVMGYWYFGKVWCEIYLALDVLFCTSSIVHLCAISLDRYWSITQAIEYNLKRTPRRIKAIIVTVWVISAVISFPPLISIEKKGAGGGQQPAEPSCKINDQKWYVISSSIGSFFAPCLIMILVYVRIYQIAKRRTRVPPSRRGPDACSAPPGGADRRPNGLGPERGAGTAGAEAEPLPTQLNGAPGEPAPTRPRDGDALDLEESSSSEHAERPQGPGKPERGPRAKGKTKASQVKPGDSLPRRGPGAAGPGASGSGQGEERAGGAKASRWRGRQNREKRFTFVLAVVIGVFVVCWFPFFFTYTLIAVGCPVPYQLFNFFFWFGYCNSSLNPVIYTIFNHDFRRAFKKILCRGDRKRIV

[3] = biological target: 5-hydroxytryptamine receptor 2A (Rattus norvegicus, UniProt P14842); assay: Binding affinity at 5-hydroxytryptamine 2A receptor of rat.
[4] = biological target: T2, Alpha-2B adrenergic receptor (Rattus norvegicus, UniProt P19328); assay: Binding affinity at alpha 2B adrenergic receptor of rat.
T2 sequence (P19328 whole entry): T1 sequence (P19328 whole entry)

[5] = biological target: T3, Alpha-2A adrenergic receptor (Rattus norvegicus, UniProt P22909); assay: Binding affinity at alpha-2 adrenergic receptor of rat.
T3 sequence (P22909 whole entry): T1 sequence (P22909 whole entry)

Sequence of 5-hydroxytryptamine receptor 2A (P14842 whole entry): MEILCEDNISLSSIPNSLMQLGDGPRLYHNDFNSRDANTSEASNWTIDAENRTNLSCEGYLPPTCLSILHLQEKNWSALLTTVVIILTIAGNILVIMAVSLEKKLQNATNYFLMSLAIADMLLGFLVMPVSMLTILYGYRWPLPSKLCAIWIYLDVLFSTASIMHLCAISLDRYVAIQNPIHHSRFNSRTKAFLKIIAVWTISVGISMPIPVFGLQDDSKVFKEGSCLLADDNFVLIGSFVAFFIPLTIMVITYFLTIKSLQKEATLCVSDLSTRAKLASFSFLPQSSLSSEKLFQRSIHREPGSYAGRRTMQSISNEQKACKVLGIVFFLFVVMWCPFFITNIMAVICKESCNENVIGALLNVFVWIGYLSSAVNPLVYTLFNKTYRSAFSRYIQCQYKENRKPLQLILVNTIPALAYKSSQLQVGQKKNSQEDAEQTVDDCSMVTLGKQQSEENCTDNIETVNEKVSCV

Structure (SMILES)	Ki [1] [nM]	Ki [2] [nM]	Ki [3] [nM]	Ki [4] [nM]	Ki [5] [nM]
Cn1c2c(c3ccccc31)CCNC2	5.4	–	–	–	–
COc1ccc2[nH]c3c(c2c1)CCNC3	1640	7830	–	–	–
C1=NCCc2c1[nH]c1ccccc21	7.3	700	–	–	–
Brc1cccc2[nH]c3c(c12)CCN=C3	86	3160	180	–	–
COc1cc(Br)c2c3c([nH]c2c1)CNCC3	1740	–	–	–	–
c1ccc2c3c([nH]c2c1)CCNC3	4.7	600	–	–	–
COc1cccc2c3c([nH]c12)C=NCC3	160	5020	–	–	–
COc1cccc2c3c([nH]c12)CNCC3	270	640	–	–	–
Brc1ccc2c3c([nH]c2c1)C=NCC3	400	10700	–	–	–
Brc1ccc2c3c([nH]c2c1)CNCC3	1290	15500	–	–	–
COc1ccc2c3c([nH]c2c1)CNCC3	–	–	> 1000	140	–
Brc1cccc2[nH]c3c(c12)CCNC3	5.4	390	–	–	–
Brc1ccc2[nH]c3c(c2c1)CCNC3	2780	11500	–	–	–
COc1ccc2c(c1)[nH]c1cnccc12	87	–	–	–	–
NCc1c[nH]c2ccccc12	3440	14700	–	–	–
COc1cccc2[nH]c3c(c12)CCNC3	300	825	–	–	–
COc1cccc2[nH]c3c(c12)CCN=C3	84	330	–	–	–
Brc1ccc2[nH]c3c(c2c1)CCN=C3	790	5290	–	–	–
COc1ccc2[nH]c3c(c2c1)CCN=C3	480	2190	–	–	–
Brc1cccc2c3c([nH]c12)C=NCC3	17	815	–	–	–
Brc1cccc2c3c([nH]c12)CNCC3	3.6	–	–	–	460
COc1ccc2c3c([nH]c2c1)C=NCC3 [CGS-19281A]	18	> 10000	–	–	–
COc1ccc2c(c1)[nH]c1c(C)nccc12 [HARMINE]	49	–	–	–	–
Cn1c2c(c3ccccc31)CCNCC2 [PNU-22394]	1030	415	–	–	–
NCCc1c[nH]c2ccccc12 [TRYPTAMINE]	5400	19000	–	–	–
c1ccc2c3c([nH]c2c1)CNCC3 [TRYPTOLINE]	9.4	–	–	–	–

— ChEMBL document CHEMBL1149219, “Binding of beta-carbolines at imidazoline I2 receptors: a structure-affinity investigation” (Bioorg Med Chem Lett, 2004)
